Legend:
[1] = Stability of aloesin in plasma samples (LC-MS/MS quality control samples); assay type: in vitro ADME, rat
Procedure: Prepare 3 concentrations of aloesin quality control samples (500 ng·mL^−1, 50 ng·mL^−1, 3 ng·mL^−1) with blank plasma, and examine the stability under the following conditions.
(1) After the sample is processed, it is placed in the autosampler for 8 hours, and then the sample is injected for analysis;
(2) The sample is processed after 3 freeze-thaw cycles, and the sample is injected for analysis;
(3) The sample is placed at room temperature for 4 hours and then comes out, and the sample is injected for analysis;
(4) The sample is processed after the sample is stored at −20° C. for 15 days, and then the sample is injected for analysis.
The stability inspection is qualified.

[2] = toxicological studies, no details given; cited from earlier work

Accuracy ([1]; 3 ng·ml^-1 in plasma, 3 freeze-thaw cycles): 109.60%
Accuracy ([1]; 3 ng·ml^-1 in plasma, processed sample in autosampler 8 h): 109.20%
Accuracy ([1]; 3 ng·ml^-1 in plasma, room temperature for 4 hours): 106.18%
Accuracy ([1]; 3 ng·ml^-1 in plasma, stored at -20° C. for 15 days): 108.00%
Accuracy ([1]; 50 ng·ml^-1 in plasma, 3 freeze-thaw cycles): 109.40%
Accuracy ([1]; 50 ng·ml^-1 in plasma, processed sample in autosampler 8 h): 108.20%
Accuracy ([1]; 50 ng·ml^-1 in plasma, room temperature for 4 hours): 105.20%
Accuracy ([1]; 50 ng·ml^-1 in plasma, stored at -20° C. for 15 days): 100.14%
Accuracy ([1]; 500 ng·ml^-1 in plasma, 3 freeze-thaw cycles): 105.20%
Accuracy ([1]; 500 ng·ml^-1 in plasma, processed sample in autosampler 8 h): 102.60%
Accuracy ([1]; 500 ng·ml^-1 in plasma, room temperature for 4 hours): 101.80%
Accuracy ([1]; 500 ng·ml^-1 in plasma, stored at -20° C. for 15 days): 94.66%
SMILES: CC(=O)Cc1cc(=O)c2c(C)cc(O)c([C@@H]3O[C@H](CO)[C@@H](O)[C@H](O)[C@H]3O)c2o1 [aloesin]
toxic side effects [2]: basically no toxic side effects
